Values quoted from earlier work, collected in US20140343076A1, “PHARMACEUTICAL COMPOSITIONS OF LURASIDONE” (Cadila Healthcare Limited, priority 2013, published 2014).
Where a name gives a salt, the structure may show the parent alone.

Q: With O=C1[C@@H]2[C@H]3CC[C@H](C3)[C@@H]2C(=O)N1C[C@@H]1CCCC[C@H]1CN1CCN(c2nsc3ccccc23)CC1 [lurasidone, N-[4-[4-(1,2-benzisothiazol-3-yl)-1-piperazinyl]-(2R,3R)-2,3-tetramethylene-butyl]-(1′R,2′S,3′R,4′S)-2,3-bicyclo[2,2,1]heptanedicarboxyimide hydrochloride] as the compound, how does the solubility in water read?
A: Its solubility in water is “less than several”.
